Consider 22 compounds from patent publication US9206159B2, “Piperazine-piperidine compounds as hepatitis C virus inhibitors” (Theravance Biopharma R&D IP, LLC, priority 2012, dated 2015).

For assay [1], the system named is HCV genotype 1a replicon cell line. In words: HCV Genotype 1a Replicon Assay. The format is cell-based, hepatitis C virus. To be noted: Huh7.5 cell background, NS3-specific protease activity in lysates, 48 or 72 hours; for EC50: Hepatitis C virus, read-out: Genotype 1a (pEC50 class) (converted). In outline:
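Huh7.5-based subgenomic genotype 1a replicon cells, plated without G418, exposed to compound dose-responses (0.5% DMSO final) for 48 or 72 h at 37 °C. Lysate NS3/4a protease activity read with 15 μM FRET substrate, 20 min at 37 °C (Ex 340/Em 509 nm); EC50 from 4-parameter fit.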

Assay [2] deals with HCV genotype 1b replicon cell line. Description: HCV Genotype 1b Replicon Assay. To be noted: Huh7 cell background, Renilla luciferase readout, 48 hours. The format is cell-based, hepatitis C virus. An excerpt: Assay 1: HCV Genotype 1b Replicon Assay
The HCV genotype 1b replicon cell line was obtained from Apath LLC (Brooklyn, N.Y.) (APC144; Huh7 cell background). This subgenomic replicon contains the N-terminus of the HCV core protein fused to the neomycin-resistance selectable marker. The EMCV IRES lies downstream and drives expression of humanized Renilla luciferase fused to the non-structural proteins NS3-NS5B. This cell line was used to determine compound potency using the luciferase activity readout as a measurement of compound inhibition of replicon levels.
Cells were grown at 37° C. in a 5% CO2 humidified incubator in DMEM (Invitrogen) with 10% FBS (HyClone), 1×NEAA (Invitrogen), 1× Pen-Strep (Invitrogen), and 500 μg/mL G418 (Invitrogen). On day 1 of the assay, cells were plated at 10,000 cells/well in white 96-well tissue culture plates (Costar) in 200 μL media lacking G418. Four hours later, once the cells have adhered, the media was removed and replaced with media (no G418) containing dose-responses of test compounds. Compounds were initially diluted in DMSO and then diluted another 200× in media to bring the final DMSO concentration down to 0.5%. The cells were incubated with test compounds for 48 hours. At the end of the incubation period, media and compound were removed from the plates and the luciferase activity was determined using Promega Renilla-Glo reagents.
To analyze the data, the luciferase activity was plotted vs. the compound concentration, and EC50 values were determined from a 4-parameter robust fit model with the GraphPad Prism software package (GraphPad Software, Inc., San Diego, Calif.). Results are expressed as the negative decadic logarithm of the EC50 value, pEC50.
Test compounds having a higher pEC50 value in this assay show greater inhibition of HCV genotype 1b replication.

A value given as a limit tells only on which side of the number the result lay.

For the compound `COC(=O)N[C@H](C(=O)N1CCC[C@H]1c1nc(-c2ccc(-c3ccc(NC(=O)N4CCN(C5CCN(C(=O)OC(C)(C)C)CC5)CC4)cc3)cc2)c[nH]1)C(C)C` [Example 1-1], the “Genotype 1a (pEC50 class)” value in assay [1] is “C (C represents pEC50 between and 9 and about 10, (EC50 between 1 nM and 0.1 nM))”. The “Genotype 1b (pEC50 class)” value in assay [2] is “D (D represents pEC50>10 (EC50<0.1 nM))”.
With `COC(=O)N[C@H](C(=O)N1CCC[C@H]1c1nc(-c2ccc(-c3ccc(NC(=O)N4CCN(C5CCN(C(=O)C6CC6)CC5)CC4)cc3)cc2)c[nH]1)C(C)C` [Example 1-8], the “Genotype 1a (pEC50 class)” value in assay [1] was “C (C represents pEC50 between and 9 and about 10, (EC50 between 1 nM and 0.1 nM))”. Also, the “Genotype 1b (pEC50 class)” value in assay [2] is “D (D represents pEC50>10 (EC50<0.1 nM))”.
For `COC(=O)N[C@H](C(=O)N1CCC[C@H]1c1nc(-c2ccc(-c3ccc(NC(=O)N4CCN(C5CCN(C(=O)[C@H]6CC6(C)C)CC5)CC4)cc3OC(F)(F)F)cc2)c[nH]1)C(C)C` [Example 1-12], in assay [1], the “Genotype 1a (pEC50 class)” value was “C (C represents pEC50 between and 9 and about 10, (EC50 between 1 nM and 0.1 nM))”. Besides, the “Genotype 1b (pEC50 class)” value in assay [2] is “D (D represents pEC50>10 (EC50<0.1 nM))”.
Turning to `COC(=O)N[C@H](C(=O)N1CCC[C@H]1c1nc(-c2ccc(-c3ccc(NC(=O)N4CCN(C5CCN(C(=O)C6CC6)CC5)CC4)cc3OC(F)(F)F)cc2)c[nH]1)C(C)C` [Example 1-13], the “Genotype 1a (pEC50 class)” value in assay [1] was “C (C represents pEC50 between and 9 and about 10, (EC50 between 1 nM and 0.1 nM))”. Moreover, in assay [2], the “Genotype 1b (pEC50 class)” value was “D (D represents pEC50>10 (EC50<0.1 nM))”.
Turning to `COC(=O)N[C@H](C(=O)N1CCC[C@H]1c1nc(-c2ccc(-c3ccc(NC(=O)N4CCN(C5CCN(C(=O)OC(C)(C)C)CC5)CC4)cc3OC(F)(F)F)cc2)c[nH]1)C(C)C` [Example 1-14], the “Genotype 1a (pEC50 class)” value in assay [1] was “C (C represents pEC50 between and 9 and about 10, (EC50 between 1 nM and 0.1 nM))”. In assay [2], the “Genotype 1b (pEC50 class)” value is reported as “D (D represents pEC50>10 (EC50<0.1 nM))”.
`COC(=O)N[C@H](C(=O)N1CCC[C@H]1c1nc(-c2ccc(-c3ccc(NC(=O)N4CCN(C5CCN(C(=O)C(C)(C)CO)CC5)CC4)cc3OC(F)(F)F)cc2)c[nH]1)C(C)C` [Example 1-17]: in assay [1], the “Genotype 1a (pEC50 class)” value is “C (C represents pEC50 between and 9 and about 10, (EC50 between 1 nM and 0.1 nM))”. The “Genotype 1b (pEC50 class)” value in assay [2] is “D (D represents pEC50>10 (EC50<0.1 nM))”.
Consider `COC(=O)N[C@H](C(=O)N1C[C@@H](C)C[C@H]1c1nc(-c2ccc(-c3cc(F)c(NC(=O)N4CCN(C5CCN(C(=O)C(C)(C)C)CC5)CC4)cc3OC(F)(F)F)cc2)c[nH]1)C(C)C` [Example 2-5], for which, in assay [1], the “Genotype 1a (pEC50 class)” value is “D (D represents pEC50>10 (EC50<0.1 nM))”. Besides, the “Genotype 1b (pEC50 class)” value in assay [2] is given as “D (D represents pEC50>10 (EC50<0.1 nM))”.
As for `COC(=O)N[C@H](C(=O)N1C[C@@H](C)C[C@H]1c1nc(-c2ccc(-c3ccc(NC(=O)N4CCN(C5CCN(C(=O)C(C)(C)C)CC5)CC4)cc3OC(F)(F)F)cc2)c[nH]1)C(C)C` [Example 2-9], the “Genotype 1a (pEC50 class)” value in assay [1] was “D (D represents pEC50>10 (EC50<0.1 nM))”. Further, in assay [2], the “Genotype 1b (pEC50 class)” value was “D (D represents pEC50>10 (EC50<0.1 nM))”.
With `COC(=O)N[C@H](C(=O)N1C[C@@H](C)C[C@H]1c1nc(-c2ccc(-c3cc(F)c(NC(=O)N4CCN(C5CCN(C(=O)[C@H]6CC6(C)C)CC5)CC4)cc3OC(F)(F)F)cc2)c[nH]1)C(C)C` [Example 2-16], the “Genotype 1a (pEC50 class)” value in assay [1] is listed as “D (D represents pEC50>10 (EC50<0.1 nM))”. Besides, the “Genotype 1b (pEC50 class)” value in assay [2] is listed as “D (D represents pEC50>10 (EC50<0.1 nM))”.
As for `COC(=O)N[C@H](C(=O)N1C[C@@H](C)C[C@H]1c1nc(-c2ccc(-c3ccc(NC(=O)N4CCN(C5CCN(C(=O)[C@H]6CC6(C)C)CC5)CC4)cc3OC(F)(F)F)cc2)c(Cl)[nH]1)C(C)C` [Example 2-17], the “Genotype 1a (pEC50 class)” value in assay [1] is listed as “D (D represents pEC50>10 (EC50<0.1 nM))”. In addition, the “Genotype 1b (pEC50 class)” value in assay [2] was “D (D represents pEC50>10 (EC50<0.1 nM))”.
In the case of `COC(=O)N[C@H](C(=O)N1C[C@@H](C)C[C@H]1c1nc(-c2ccc(-c3ccc(NC(=O)N4CCN(C5CCN(C(=O)C6CCC6)CC5)CC4)cc3OC(F)(F)F)cc2)c[nH]1)C(C)C` [Example 2-19], in assay [1], the “Genotype 1a (pEC50 class)” value was “C (C represents pEC50 between and 9 and about 10, (EC50 between 1 nM and 0.1 nM))”. For the same compound, the “Genotype 1b (pEC50 class)” value in assay [2] was “D (D represents pEC50>10 (EC50<0.1 nM))”.
In the case of `[2H]C([2H])([2H])C1(C([2H])([2H])[2H])CC1C(=O)N1CCC(N2CCN(C(=O)Nc3ccc(-c4ccc(-c5c[nH]c([C@@H]6C[C@H](C)CN6C(=O)[C@@H](NC(=O)OC)C(C)C)n5)cc4)c(OC(F)(F)F)c3)CC2)CC1` (stereo partly shown) [Example 2-20], the “Genotype 1a (pEC50 class)” value in assay [1] is “D (D represents pEC50>10 (EC50<0.1 nM))”. For the same compound, the “Genotype 1b (pEC50 class)” value in assay [2] was “D (D represents pEC50>10 (EC50<0.1 nM))”.
In the case of `COC(=O)N[C@H](C(=O)N1CCC[C@H]1c1nc(-c2ccc(-c3ccc(NC(=O)N4CC5CCC(C4)N5C4CCN(C(=O)C5CC5)CC4)cc3OC(F)(F)F)cc2)c[nH]1)C(C)C` [Example 8-1], the EC50 in assay [1] is 1000 to 10000 pM.
Still for that read-out and setting: for `COC(=O)N[C@H](C(=O)N1CCC[C@H]1c1nc(-c2ccc(-c3ccc(NC(=O)N4CC5CCC(C4)N5C4CCN(C(=O)OC(C)(C)C)CC4)cc3OC(F)(F)F)cc2)c[nH]1)C(C)C` [Example 8-2] the value was 100 to 1000 pM; for `COC(=O)N[C@H](C(=O)N1[C@@H](C)CC[C@H]1c1nc(-c2ccc(-c3ccc(NC(=O)N4CCN(C5CCN(C(=O)C(C)(C)C)CC5)CC4)cc3OC(F)(F)F)cc2)c[nH]1)C(C)C` [Example 8-3], 100 to 1000 pM.
On the same count and under the same terms, to `COC(=O)N[C@H](C(=O)N1[C@@H](C)CC[C@H]1c1nc(-c2ccc(-c3ccc(NC(=O)N4CCN(C5CCN(C(=O)C6CC6)CC5)CC4)cc3OC(F)(F)F)cc2)c[nH]1)C(C)C` [Example 8-4] belongs 100 to 1000 pM.
On the same count and under the same terms, for `COC(=O)N[C@H](C(=O)N1[C@@H](C)CC[C@H]1c1nc(-c2ccc(-c3ccc(NC(=O)N4CCN(C5CCN(C(=O)[C@H]6CC6(C)C)CC5)CC4)cc3OC(F)(F)F)cc2)c[nH]1)C(C)C` [Example 8-5] the value was 100 to 1000 pM; for `COC(=O)N[C@H](C(=O)N1C[C@@H](C)C[C@H]1c1nc(-c2ccc(-c3ccc(NC(=O)N4CCN(C5CCN(C(=O)C6CC6)CC5)CC4)cc3OC(F)(F)F)cc2)c(F)[nH]1)C(C)C` [Example 9], below 100 pM.
As for `COC(=O)N[C@H](C(=O)N1C[C@@H](C)C[C@H]1c1nc(-c2ccc(-c3ccc(NC(=O)N4CCN(C5CCN(C(=O)[C@H]6CC6(C)C)CC5)CC4)cc3OC(F)(F)F)cc2)c(F)[nH]1)C(C)C` [Example 10], in assay [1], the “Genotype 1a (pEC50 class)” value was “D (D represents pEC50>10 (EC50<0.1 nM))”.
On to `COC(=O)N[C@H](C(=O)N1C[C@@H](C)C[C@H]1c1nc(-c2ccc(-c3cc(Cl)c(NC(=O)N4CCC(N5CCN(C(=O)C(C)(C)C)C[C@@H]5C)CC4)cc3OC(F)(F)F)cc2)c[nH]1)C(C)C` [Example 12, [(S)-1-((2S,4S)-2-{4-[5′-Chloro-4′-({4-[(S)-4-(2,2-dimethyl-propionyl)-2-methyl-piperazin-1-yl]-piperidine-1-carbonyl}-amino)-2′-trifluoromethoxy-biphenyl-4-yl]-1H-imidazol-2-yl}-4-methyl-pyrrolidine-1-carbonyl)-2-methyl-propyl]-carbamic acid methyl ester], for which, in assay [1], the EC50 is 100 to 1000 pM.
On the same count and under the same terms, to `COC(=O)N[C@H](C(=O)N1C[C@@H](OC)C[C@H]1c1nc(-c2ccc(-c3ccc(NC(=O)N4CCC(N5CCN(C(=O)C6CCC6(C)C)CC5)CC4)cc3OC(F)(F)F)cc2)c[nH]1)C(C)C` (stereo partly drawn) [Example 14, [(S)-1-((2S,4S)-2-{4-[4′-({4-[4-(2,2-Dimethyl-cyclobutanecarbonyl)-piperazin-1-yl]-piperidine-1-carbonyl}-amino)-2′-trifluoromethoxy-biphenyl-4-yl]-1H-imidazol-2-yl}-4-methoxy-pyrrolidine-1-carbonyl)-2-methyl-propyl]-carbamic acid methyl ester] belongs 100 to 1000 pM; to `COC(=O)N[C@H](C(=O)N1C[C@@H](C)C[C@H]1c1nc2c(ccc3cc(-c4ccc(NC(=O)N5CCN(C6CCN(C(=O)C(C)(C)C)CC6)CC5)cc4OC(F)(F)F)ccc32)[nH]1)C(C)C` [Example 15, [(S)-1-((2S,4S)-2-{7-[4-({4-[1-(2,2-Dimethyl-propionyl)-piperidin-4-yl]-piperazine-1-carbonyl}-amino)-2-trifluoromethoxy-phenyl]-3H-naphtho[1,2-d]imidazol-2-yl}-4-methyl-pyrrolidine-1-carbonyl)-2-methyl-propyl]-carbamic acid methyl ester], below 100 pM.
